# Experimental data published in US8871767B2, “2-arylimidazo[1,2-B]pyridazine, 2-phenylimidazo[1,2-A]pyridine, and 2-phenylimidazo[1,2-A]pyrazine derivatives” (Hengrui (USA) Ltd., priority 2010, dated 2014).
# Read-outs that look alike come from different tables or passages of the source.
# Columns and labels:
# [1] = system: Hedgehog pathway activation on 10T1/2/Smo#3 cells (C3H10T1/2 cells transfected with human Smoothened receptor); experiment: Hedgehog pathway activation on 10T1/2/Smo#3 cells measured by ALP activity; assay type: cell-based; conditions: Mus musculus, C3H 10T1/2, 10T1/2/Smo#3 cells
# Summary of the method: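 Inhibition of alkaline phosphatase induction, read fluorometrically from 4-methylumbelliferyl phosphate conversion, gave IC50 values; CellTiter-Blue tracked viability in parallel. Cells were the human Smo-transfected 10T1/2/Smo#3 pool, stimulated by 10-20% hShh conditioned medium or the Smo agonist SAG (500 nM).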
# [2] = system: Hedgehog pathway activation (GLi-luciferase reporter) in Shh Light II reporter cells; experiment: Hedgehog pathway activation on Shh Light II reporter cells measured by luciferase activity; assay type: cell-based; conditions: Mus musculus, Shh Light II
# Summary of the method: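 Shh Light II reporter cells carrying a hedgehog-responsive GLi-luciferase reporter were stimulated either with 500 nM SAG, a direct Smoothened agonist, or with conditioned media containing human Sonic Hedgehog (hShh). Test compounds were evaluated for blocking this pathway activation, quantified by luciferase activity. Cell viability was monitored in parallel with the Celltiter-Blue® assay.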
# [3] = measured by ALP activity, read-out: ALP (IC50, inhibition of Hedgehog pathway activation)
# [4] = hShh activation, read-out: Shh (IC50, inhibition of Hedgehog pathway activation)
# [5] = hShh activation, ALP activity, read-out: 10T1/2/Smo#3 ALP activity (hShh Activation)
# [6] = SAG activation (500 nM SAG), read-out: Shh Light II luciferase activity (SAG activation)
# [7] = hShh activation, read-out: Shh Light II luciferase activity (hShh activation)
Structure (SMILES),"IC50 [1, 3] [µM]","IC50 [2, 4] [µM]","IC50 [1, 5] [µM]","IC50 [2, 6] [µM]","IC50 [2, 7] [µM]"
"CN(C)c1ccc2nc(-c3ccc(C(F)(F)F)c(NC(=O)C(C)(C)C)c3)cn2n1 [Example 138, N-(5-(6-(dimethylamino)imidazo[1,2-b]pyridazin-2-yl)-2-(trifluoromethyl)phenyl)pivalamide]",2.17,3.45,,,
"CC(C)(C)C(=O)Nc1cc(-c2cn3nc(C4CC4)ccc3n2)ccc1C(F)(F)F [Example 139, N-(5-(6-cyclopropylimidazo[1,2-b]pyridazin-2-yl)-2-(trifluoromethyl)phenyl)pivalamide]",0.451,0.186,,,
"CC(C)c1ccc2nc(-c3ccc(C(F)(F)F)c(NC(=O)C(C)(C)C)c3)cn2n1 [Example 140, N-(5-(6-isopropylimidazo[1,2-b]pyridazin-2-yl)-2-(trifluoromethyl)phenyl)pivalamide]",0.314,0.721,,,
"CC(C)(C)C(=O)Nc1cc(-c2cn3nc(-c4ccccn4)ccc3n2)ccc1C(F)(F)F [Example 141, N-(5-(6-(pyridin-2-yl)imidazo[1,2-b]pyridazin-2-yl)-2-(trifluoromethyl)phenyl)pivalamide]",9.06,0.26,3 to 30,< 0.3,< 0.3
"Cc1ccc2nc(-c3ccc(C(F)(F)F)c(NC(=O)C(C)(C)C)c3)cn2n1 [Example 142, N-(5-(6-methylimidazo[1,2-b]pyridazin-2-yl)-2-(trifluoromethyl)phenyl)pivalamide]",0.365,1.41,,,
"CC(C)(C)C(=O)Nc1cc(-c2cn3nc(-c4ccc(F)cc4)ccc3n2)ccc1C(F)(F)F [Example 143, N-(5-(6-(4-fluorophenyl)imidazo[1,2-b]pyridazin-2-yl)-2-(trifluoromethyl)phenyl)pivalamide]",2.69,0.466,,,
"Fc1ccc(CN2CCN(c3ccc4nc(-c5ccccc5)c(Cl)n4n3)CC2)cc1 [Example 144, 3-chloro-6-(4-(4-fluorobenzyl)piperazin-1-yl)-2-phenylimidazo[1,2-b]pyridazine]",3.97,> 10,3 to 30,3 to 30,3 to 30
"Cc1c(-c2ccccc2)nc2ccc(N3CCNCC3)nn12 [Example 145, 3-methyl-2-phenyl-6-(piperazin-1-yl)imidazo[1,2-b]pyridazine]",4.78,5.44,3 to 30,3 to 30,3 to 30
"Fc1ccc(CN2CCN(c3ccc4nc(-c5ccc(F)cc5)c(Br)n4n3)CC2)cc1 [Example 146, 3-bromo-6-(4-(4-fluorobenzyl)piperazin-1-yl)-2-(4-fluorophenyl)imidazo[1,2-b]pyridazine]",6.98,> 10,,,
"COc1cccc(-c2ccc3nc(-c4ccc(C(F)(F)F)c(NC(=O)C(C)(C)C)c4)cn3n2)n1 [Example 147, N-(5-(6-(6-methoxypyridin-2-yl)imidazo[1,2-b]pyridazin-2-yl)-2-(trifluoromethyl)phenyl)pivalamide]",> 10,1.04,,,
"CC(C)(C)C(=O)Nc1cc(-c2cn3nc(-c4nccs4)ccc3n2)ccc1C(F)(F)F [Example 148, N-(5-(6-(thiazol-2-yl)imidazo[1,2-b]pyridazin-2-yl)-2-(trifluoromethyl)phenyl)pivalamide]",1.94,0.608,0.3 to 3,0.3 to 3,0.3 to 3
"Cc1cccc(-c2ccc3nc(-c4ccc(C(F)(F)F)c(NC(=O)C(C)(C)C)c4)cn3n2)n1 [Example 149, N-(5-(6-(6-methylpyridin-2-yl)imidazo[1,2-b]pyridazin-2-yl)-2-(trifluoromethyl)phenyl)pivalamide]",1.75,1.02,0.3 to 3,0.3 to 3,0.3 to 3
"Cc1ccc(-c2ccc3nc(-c4ccc(C(F)(F)F)c(NC(=O)C(C)(C)C)c4)cn3n2)nc1 [Example 150, N-(5-(6-(5-methylpyridin-2-yl)imidazo[1,2-b]pyridazin-2-yl)-2-(trifluoromethyl)phenyl)pivalamide]",2.74,1.28,,,
"Cc1ccnc(-c2ccc3nc(-c4ccc(C(F)(F)F)c(NC(=O)C(C)(C)C)c4)cn3n2)c1 [Example 151, N-(5-(6-(4-methylpyridin-2-yl)imidazo[1,2-b]pyridazin-2-yl)-2-(trifluoromethyl)phenyl)pivalamide]",1.81,0.899,,,
"Cc1cccnc1-c1ccc2nc(-c3ccc(C(F)(F)F)c(NC(=O)C(C)(C)C)c3)cn2n1 [Example 152, N-(5-(6-(3-methylpyridin-2-yl)imidazo[1,2-b]pyridazin-2-yl)-2-(trifluoromethyl)phenyl)pivalamide]",0.59,0.314,,,
"CC(C)(C)C(=O)Nc1cc(-c2cn3nc(-c4cccnc4)ccc3n2)ccc1C(F)(F)F [Example 153, N-(5-(6-(pyridin-3-yl)imidazo[1,2-b]pyridazin-2-yl)-2-(trifluoromethyl)phenyl)pivalamide]",0.41,0.264,0.3 to 3,0.3 to 3,< 0.3
"Cc1c(-c2ccccc2)nc2ccc(N3CCN(C(=O)c4ccccc4)CC3)nn12 [Example 154, (4-(3-methyl-2-phenylimidazo[1,2-b]pyridazin-6-yl)piperazin-1-yl)(phenyl)methanone]",2.89,3.4,,,
"Cc1c(-c2ccccc2)nc2ccc(N3CCN(C(=O)Cc4ccccc4)CC3)nn12 [Example 155, 1-(4-(3-methyl-2-phenylimidazo[1,2-b]pyridazin-6-yl)piperazin-1-yl)-2-phenylethanone]",1.27,2.1,0.3 to 3,< 0.3,0.3 to 3

# Now from value to molecule:
"IC50 [1, 3] [µM]","IC50 [2, 4] [µM]","IC50 [1, 5] [µM]","IC50 [2, 6] [µM]","IC50 [2, 7] [µM]",Structure (SMILES)
8.84,3.43,,,,"Cc1c(-c2ccccc2)nc2ccc(N3CCN(C(=O)CCc4ccccc4)CC3)nn12 [Example 156, 1-(4-(3-methyl-2-phenylimidazo[1,2-b]pyridazin-6-yl)piperazin-1-yl)-3-phenylpropan-1-one]"
> 10,1.95,,,,"Cc1c(-c2ccccc2)nc2ccc(N3CCN(C(=O)CC(C)(C)C)CC3)nn12 [Example 157, 3,3-dimethyl-1-(4-(3-methyl-2-phenylimidazo[1,2-b]pyridazin-6-yl)piperazin-1-yl)butan-1-one]"
7.34,0.847,3 to 30,0.3 to 3,3 to 30,"Cc1c(-c2ccccc2)nc2ccc(N3CCN(C(=O)OC(C)(C)C)CC3)nn12 [Example 158, tert-butyl 4-(3-methyl-2-phenylimidazo[1,2-b]pyridazin-6-yl)piperazine-1-carboxylate]"
0.435,0.44,,,,"Cc1c(-c2ccccc2)nc2ccc(N3CCN(C(=O)NC4CCCCC4)CC3)nn12 [Example 159, N-cyclohexyl-4-(3-methyl-2-phenylimidazo[1,2-b]pyridazin-6-yl)piperazine-1-carboxamide]"
0.627,2.51,,,,"Cc1c(-c2ccccc2)nc2ccc(N3CCN(Cc4ccccn4)CC3)nn12 [Example 160, 3-methyl-2-phenyl-6-(4-(pyridin-2-ylmethyl)piperazin-1-yl)imidazo[1,2-b]pyridazine]"
0.404,0.911,0.3 to 3,0.3 to 3,0.3 to 3,"Cc1c(-c2ccccc2)nc2ccc(N3CCN(Cc4cccnc4)CC3)nn12 [Example 161, 3-methyl-2-phenyl-6-(4-(pyridin-3-ylmethyl)piperazin-1-yl)imidazo[1,2-b]pyridazine]"
1.11,1.4,,,,"Cc1c(-c2ccccc2)nc2ccc(N3CCN(Cc4ccncc4)CC3)nn12 [Example 162, 3-methyl-2-phenyl-6-(4-(pyridin-4-ylmethyl)piperazin-1-yl)imidazo[1,2-b]pyridazine]"
1.05,1.06,,,,"Cc1ccccc1CN1CCN(c2ccc3nc(-c4ccccc4)c(C)n3n2)CC1 [Example 163, 3-methyl-6-(4-(2-methylbenzyl)piperazin-1-yl)-2-phenylimidazo[1,2-b]pyridazine]"
0.55,0.463,,,,"Cc1c(-c2ccccc2)nc2ccc(N3CCN(Cc4ccc(F)cc4F)CC3)nn12 [Example 164, 6-(4-(2,4-difluorobenzyl)piperazin-1-yl)-3-methyl-2-phenylimidazo[1,2-b]pyridazine]"
> 10,0.89,,,,"Cc1c(-c2ccccc2)nc2ccc(N3CCN(Cc4cccc(C(F)(F)F)c4)CC3)nn12 [Example 165, 3-methyl-2-phenyl-6-(4-(3-(trifluoromethyl)benzyl)piperazin-1-yl)imidazo[1,2-b]pyridazine]"
1.97,0.995,,,,"Cc1c(-c2ccccc2)nc2ccc(N3CCN(Cc4ccc(OC(F)(F)F)cc4)CC3)nn12 [Example 166, 3-methyl-2-phenyl-6-(4-(4-(trifluoromethoxy)benzyl)piperazin-1-yl)imidazo[1,2-b]pyridazine]"
> 10,2.27,,,,"Fc1ccc(CN2CCN(c3ccc4nc(-c5ccc(F)cc5)c(C5CC5)n4n3)CC2)cc1 [Example 167, 3-cyclopropyl-6-(4-(4-fluorobenzyl)piperazin-1-yl)-2-(4-fluorophenyl)imidazo[1,2-b]pyridazine]"
